Patent US4471131A, “Novel silyl esters of N-phosphonomethylglycine” (Monsanto Company, priority 1983, dated 1984)

Legend:
Assay in all cases: post-emergence herbicidal activity, greenhouse
Type in all cases: in vivo
Sugar Beet = details: Table III
Method in brief: (§1)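 Greenhouse-grown seedlings in soil pans; post-emergence atomizer spray at 2–3 weeks; injury against controls observed twice, near weeks 2 and 4.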

Soybean = details: Table III
Method in brief: as §1

Large Crabgrass = details: Table III
Method in brief: as §1

Rice = details: Table III
Method in brief: as §1

Johnsongrass = details: Table II
Method in brief: as §1

Quackgrass = details: Table II
Method in brief: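 Plants grown two to three weeks in greenhouse soil pans were atomizer-sprayed with test chemical in spray containing about 0.4% emulsifier, at the listed rates. Injury relative to unsprayed controls observed at approximately two and four weeks after treatment.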

Morningglory = test system: Morningglory
Method in brief: as §1

Barnyardgrass = test system: Barnyardgrass
Method in brief: as §1

Hemp Sesbania = details: Table III
Method in brief: as §1

[1] = 2 WAT, 1.1 kg/h, formulated in anhydrous tetrahydrofuran
[2] = 2 WAT, 5.6 kg/h, formulated in anhydrous tetrahydrofuran
[3] = 2 WAT, .28 kg/h, formulated in anhydrous tetrahydrofuran
[4] = 4 WAT, 1.1 kg/h, formulated in anhydrous tetrahydrofuran
[5] = 4 WAT, 5.6 kg/h, formulated in anhydrous tetrahydrofuran
[6] = 4 WAT, .28 kg/h, formulated in anhydrous tetrahydrofuran
[7] = 2 WAT, 11.2 kg/h, formulated in anhydrous tetrahydrofuran
[8] = 4 WAT, 11.2 kg/h, formulated in anhydrous tetrahydrofuran
[9] = Table II, 2 WAT, 5.6 kg/h, formulated in anhydrous tetrahydrofuran
[10] = Table II, 2 WAT, 11.2 kg/h, formulated in anhydrous tetrahydrofuran
[11] = Table II, 4 WAT, 5.6 kg/h, formulated in anhydrous tetrahydrofuran
[12] = Table II, 4 WAT, 11.2 kg/h, formulated in anhydrous tetrahydrofuran
[13] = Table III, 2 WAT, 1.1 kg/h, formulated in anhydrous tetrahydrofuran
[14] = Table III, 2 WAT, 5.6 kg/h, formulated in anhydrous tetrahydrofuran
[15] = Table III, 2 WAT, .28 kg/h, formulated in anhydrous tetrahydrofuran
[16] = Table III, 4 WAT, 1.1 kg/h, formulated in anhydrous tetrahydrofuran
[17] = Table III, 4 WAT, 5.6 kg/h, formulated in anhydrous tetrahydrofuran
[18] = Table III, 4 WAT, .28 kg/h, formulated in anhydrous tetrahydrofuran

CCOC(=O)CNCP(=O)(O)O[Si](c1ccccc1)(c1ccccc1)C(C)(C)C [Ex. 7, Glycine, N--((([(1,1-Dimethylethyl)Diphenylsilyl]Oxy)Hydroxyphosphinyl)Methyl)-,Ethyl Ester]
Plant Response Index (M) (Sugar Beet; 2 WAT, 1.1 kg/h): 1 (25-49% inhibition) | Plant Response Index (M) (Sugar Beet; [1]): 1 (25-49% inhibition) | Plant Response Index (M) (Sugar Beet; 2 WAT, 5.6 kg/h): 1 (25-49% inhibition) | Plant Response Index (M) (Sugar Beet; [2]): 3 (75-99% inhibition) | Plant Response Index (M) (Sugar Beet; 2 WAT, .28 kg/h): 1 (25-49% inhibition) | Plant Response Index (M) (Sugar Beet; [3]): 1 (25-49% inhibition) | Plant Response Index (M) (Sugar Beet; 4 WAT, 1.1 kg/h): 1 (25-49% inhibition) | Plant Response Index (M) (Sugar Beet; [4]): 1 (25-49% inhibition) | Plant Response Index (M) (Sugar Beet; 4 WAT, 5.6 kg/h): 2 (50-74% inhibition) | Plant Response Index (M) (Sugar Beet; [5]): 4 (100% inhibition) | Plant Response Index (M) (Sugar Beet; 4 WAT, .28 kg/h): 1 (25-49% inhibition) | Plant Response Index (M) (Sugar Beet; [6]): 1 (25-49% inhibition) | Plant Response Index (L) (Soybean; 2 WAT, 1.1 kg/h): 2 (50-74% inhibition) | Plant Response Index (L) (Soybean; [1]): 1 (25-49% inhibition) | Plant Response Index (L) (Soybean; 2 WAT, 5.6 kg/h): 2 (50-74% inhibition) | Plant Response Index (L) (Soybean; [2]): 2 (50-74% inhibition) | Plant Response Index (L) (Soybean; 2 WAT, .28 kg/h): 0 (0-24% inhibition) | Plant Response Index (L) (Soybean; [3]): 1 (25-49% inhibition) | Plant Response Index (L) (Soybean; 4 WAT, 1.1 kg/h): 1 (25-49% inhibition) | Plant Response Index (L) (Soybean; [4]): 1 (25-49% inhibition) | Plant Response Index (L) (Soybean; 4 WAT, 5.6 kg/h): 1 (25-49% inhibition) | Plant Response Index (L) (Soybean; [5]): 2 (50-74% inhibition) | Plant Response Index (L) (Soybean; 4 WAT, .28 kg/h): 0 (0-24% inhibition) | Plant Response Index (L) (Soybean; [6]): 1 (25-49% inhibition) | Plant Response Index (T) (Large Crabgrass; 2 WAT, 1.1 kg/h): 4 (100% inhibition) | Plant Response Index (T) (Large Crabgrass; [1]): 3 (75-99% inhibition) | Plant Response Index (T) (Large Crabgrass; [2]): 3 (75-99% inhibition) | Plant Response Index (T) (Large Crabgrass; [3]): 2 (50-74% inhibition) | Plant Response Index (T) (Large Crabgrass; 4 WAT, 1.1 kg/h): 4 (100% inhibition) | Plant Response Index (T) (Large Crabgrass; [4]): 3 (75-99% inhibition) | Plant Response Index (T) (Large Crabgrass; [5]): 3 (75-99% inhibition) | Plant Response Index (T) (Large Crabgrass; [6]): 2 (50-74% inhibition) | Plant Response Index (O) (Rice; 2 WAT, 1.1 kg/h): 2 (50-74% inhibition) | Plant Response Index (O) (Rice; [1]): 1 (25-49% inhibition) | Plant Response Index (O) (Rice; 2 WAT, 5.6 kg/h): 2 (50-74% inhibition) | Plant Response Index (O) (Rice; [2]): 3 (75-99% inhibition) | Plant Response Index (O) (Rice; 2 WAT, .28 kg/h): 2 (50-74% inhibition) | Plant Response Index (O) (Rice; [3]): 1 (25-49% inhibition) | Plant Response Index (O) (Rice; 4 WAT, 1.1 kg/h): 3 (75-99% inhibition) | Plant Response Index (O) (Rice; [4]): 1 (25-49% inhibition) | Plant Response Index (O) (Rice; 4 WAT, 5.6 kg/h): 3 (75-99% inhibition) | Plant Response Index (O) (Rice; [5]): 3 (75-99% inhibition) | Plant Response Index (O) (Rice; 4 WAT, .28 kg/h): 1 (25-49% inhibition) | Plant Response Index (O) (Rice; [6]): 0 (0-24% inhibition) | Plant Response Index (I) (Johnsongrass; 2 WAT, 5.6 kg/h): 3 (75-99% inhibition) | Plant Response Index (I) (Johnsongrass; [2]): 0 (0-24% inhibition) | Plant Response Index (I) (Johnsongrass; 2 WAT, 11.2 kg/h): 4 (100% inhibition) | Plant Response Index (I) (Johnsongrass; [7]): 0 (0-24% inhibition) | Plant Response Index (I) (Johnsongrass; 4 WAT, 5.6 kg/h): 4 (100% inhibition) | Plant Response Index (I) (Johnsongrass; [5]): 2 (50-74% inhibition) | Plant Response Index (I) (Johnsongrass; 4 WAT, 11.2 kg/h): 4 (100% inhibition) | Plant Response Index (I) (Johnsongrass; [8]): 1 (25-49% inhibition) | Plant Response Index (H) (Quackgrass; 2 WAT, 5.6 kg/h): 1 (25-49% inhibition) | Plant Response Index (H) (Quackgrass; [2]): 1 (25-49% inhibition) | Plant Response Index (H) (Quackgrass; 2 WAT, 11.2 kg/h): 2 (50-74% inhibition) | Plant Response Index (H) (Quackgrass; [7]): 1 (25-49% inhibition) | Plant Response Index (H) (Quackgrass; 4 WAT, 5.6 kg/h): 4 (100% inhibition) | Plant Response Index (H) (Quackgrass; [5]): 2 (50-74% inhibition) | Plant Response Index (H) (Quackgrass; 4 WAT, 11.2 kg/h): 3 (75-99% inhibition) | Plant Response Index (H) (Quackgrass; [8]): 2 (50-74% inhibition) | Plant Response Index (D) (Morningglory; Table II, 2 WAT, 5.6 kg/h): 2 (50-74% inhibition) | Plant Response Index (D) (Morningglory; [9]): 2 (50-74% inhibition) | Plant Response Index (D) (Morningglory; Table II, 2 WAT, 11.2 kg/h): 2 (50-74% inhibition) | Plant Response Index (D) (Morningglory; [10]): 1 (25-49% inhibition) | Plant Response Index (D) (Morningglory; Table II, 4 WAT, 5.6 kg/h): 2 (50-74% inhibition) | Plant Response Index (D) (Morningglory; [11]): 2 (50-74% inhibition) | Plant Response Index (D) (Morningglory; Table II, 4 WAT, 11.2 kg/h): 2 (50-74% inhibition) | Plant Response Index (D) (Morningglory; [12]): 2 (50-74% inhibition) | Plant Response Index (D) (Morningglory; Table III, 2 WAT, 1.1 kg/h): 2 (50-74% inhibition) | Plant Response Index (D) (Morningglory; [13]): 2 (50-74% inhibition) | Plant Response Index (D) (Morningglory; Table III, 2 WAT, 5.6 kg/h): 2 (50-74% inhibition) | Plant Response Index (D) (Morningglory; [14]): 2 (50-74% inhibition) | Plant Response Index (D) (Morningglory; Table III, 2 WAT, .28 kg/h): 2 (50-74% inhibition) | Plant Response Index (D) (Morningglory; [15]): 1 (25-49% inhibition) | Plant Response Index (D) (Morningglory; Table III, 4 WAT, 1.1 kg/h): 2 (50-74% inhibition) | Plant Response Index (D) (Morningglory; [16]): 2 (50-74% inhibition) | Plant Response Index (D) (Morningglory; Table III, 4 WAT, 5.6 kg/h): 3 (75-99% inhibition) | Plant Response Index (D) (Morningglory; [17]): 3 (75-99% inhibition) | Plant Response Index (D) (Morningglory; Table III, 4 WAT, .28 kg/h): 1 (25-49% inhibition) | Plant Response Index (D) (Morningglory; [18]): 1 (25-49% inhibition) | Plant Response Index (K) (Barnyardgrass; Table II, 2 WAT, 5.6 kg/h): 3 (75-99% inhibition) | Plant Response Index (K) (Barnyardgrass; [9]): 1 (25-49% inhibition) | Plant Response Index (K) (Barnyardgrass; Table II, 2 WAT, 11.2 kg/h): 3 (75-99% inhibition) | Plant Response Index (K) (Barnyardgrass; [10]): 2 (50-74% inhibition) | Plant Response Index (K) (Barnyardgrass; Table II, 4 WAT, 5.6 kg/h): 3 (75-99% inhibition) | Plant Response Index (K) (Barnyardgrass; [11]): 2 (50-74% inhibition) | Plant Response Index (K) (Barnyardgrass; Table II, 4 WAT, 11.2 kg/h): 4 (100% inhibition) | Plant Response Index (K) (Barnyardgrass; [12]): 3 (75-99% inhibition) | Plant Response Index (K) (Barnyardgrass; Table III, 2 WAT, 1.1 kg/h): 3 (75-99% inhibition) | Plant Response Index (K) (Barnyardgrass; [13]): 2 (50-74% inhibition) | Plant Response Index (K) (Barnyardgrass; Table III, 2 WAT, 5.6 kg/h): 3 (75-99% inhibition) | Plant Response Index (K) (Barnyardgrass; [14]): 3 (75-99% inhibition) | Plant Response Index (K) (Barnyardgrass; Table III, 2 WAT, .28 kg/h): 2 (50-74% inhibition) | Plant Response Index (K) (Barnyardgrass; [15]): 1 (25-49% inhibition) | Plant Response Index (K) (Barnyardgrass; Table III, 4 WAT, 1.1 kg/h): 3 (75-99% inhibition) | Plant Response Index (K) (Barnyardgrass; [16]): 2 (50-74% inhibition) | Plant Response Index (K) (Barnyardgrass; Table III, 4 WAT, 5.6 kg/h): 3 (75-99% inhibition) | Plant Response Index (K) (Barnyardgrass; [17]): 3 (75-99% inhibition) | Plant Response Index (K) (Barnyardgrass; Table III, 4 WAT, .28 kg/h): 2 (50-74% inhibition) | Plant Response Index (K) (Barnyardgrass; [18]): 1 (25-49% inhibition) | Plant Response Index (R) (Hemp Sesbania; 2 WAT, 1.1 kg/h): 3 (75-99% inhibition) | Plant Response Index (R) (Hemp Sesbania; [1]): 2 (50-74% inhibition) | Plant Response Index (R) (Hemp Sesbania; 2 WAT, 5.6 kg/h): 1 (25-49% inhibition) | Plant Response Index (R) (Hemp Sesbania; [2]): 1 (25-49% inhibition) | Plant Response Index (R) (Hemp Sesbania; 2 WAT, .28 kg/h): 1 (25-49% inhibition) | Plant Response Index (R) (Hemp Sesbania; [3]): 0 (0-24% inhibition) | Plant Response Index (R) (Hemp Sesbania; 4 WAT, 1.1 kg/h): 4 (100% inhibition) | Plant Response Index (R) (Hemp Sesbania; [4]): 2 (50-74% inhibition) | Plant Response Index (R) (Hemp Sesbania; 4 WAT, 5.6 kg/h): 2 (50-74% inhibition) | Plant Response Index (R) (Hemp Sesbania; [5]): 1 (25-49% inhibition) | Plant Response Index (R) (Hemp Sesbania; 4 WAT, .28 kg/h): 1 (25-49% inhibition) | Plant Response Index (R) (Hemp Sesbania; [6]): 0 (0-24% inhibition)
